The values that follow come from ChEMBL document CHEMBL1697781, “Assessment of the health effects of chemicals in humans: II. Construction of an adverse effects database for QSAR modeling” (Curr Drug Discov Technol, 2004).

Common to all, as to conditions: human
Data set [1] concerns Hepatotoxicity. Briefly: FDA HLAED, liver enzyme composite activity.
For data set [2], the system named is Hepatotoxicity. Briefly: FDA HLAED, alkaline phosphatase increase.
Data set [3] deals with Hepatotoxicity. Put plainly: FDA HLAED, serum glutamic oxaloacetic transaminase (SGOT) increase.
Data set [4] relates to Hepatotoxicity. Put plainly: FDA HLAED, serum glutamic pyruvic transaminase (SGPT) increase.
Data set [5] has as its system Hepatotoxicity. Briefly: FDA HLAED, lactate dehydrogenase (LDH) increase.
Data set [6] relates to Hepatotoxicity. Briefly: FDA HLAED, gamma-glutamyl transferase (GGT) increase.
For GGT Increase - Index Value in this document: reference of the scale not given here.
For LDH Increase - Index Value in this document: reference of the scale not given here.

As for `CCCCC(C)(O)C/C=C/[C@H]1[C@H](O)CC(=O)[C@@H]1CCCCCCC(=O)OC` (some centres not stated) [MISOPROSTOL], in the data set on Hepatotoxicity [1], the “Composite Activity - Active” value was 0, the “Composite Activity - Marginal” value is recorded as 0 and the “Composite Activity - Score” value is reported as “Inactive”. Moreover, in the data set with Hepatotoxicity [2], the “Alkaline Phosphatase Increase - Activity Score” value is given as “Inactive”, the “Alkaline Phosphatase Increase - Index Value” is recorded as 0.8 and the “Alkaline Phosphatase Increase - Number of Reports” value was “>= 4”. Further, in the data set with Hepatotoxicity [3], the “SGOT Increase - Activity Score” value was “Inactive”, the “SGOT Increase - Index Value” stood at 0.8 and the “SGOT Increase - Number of Reports” value was “>= 4”. Also, in the data set on Hepatotoxicity [4], the “SGPT Increase - Activity Score” value is on record as “Inactive”, the “SGPT Increase - Index Value” turned out to be 0.2 and the “SGPT Increase - Number of Reports” value is given as less than 4. In addition, in the data set on Hepatotoxicity [5], the “LDH Increase - Activity Score” value is given as “Inactive”, the “LDH Increase - Index Value” came to 0.5 and the “LDH Increase - Number of Reports” value is recorded as less than 4. Further, in the data set with Hepatotoxicity [6], the “GGT Increase - Activity Score” value was “Inactive”, the “GGT Increase - Index Value” is given as 0.5 and the “GGT Increase - Number of Reports” value is on record as less than 4.

As to `C[C@H]1COc2c(N3CCN(C)CC3)c(F)cc3c(=O)c(C(=O)O)cn1c23.C[C@H]1COc2c(N3CCN(C)CC3)c(F)cc3c(=O)c(C(=O)O)cn1c23.O` [LEVOFLOXACIN], in the data set on Hepatotoxicity [1], the “Composite Activity - Active” value amounted to 0, the “Composite Activity - Marginal” value is reported as 0 and the “Composite Activity - Score” value is on record as “Inactive”. Further, in the data set on Hepatotoxicity [2], the “Alkaline Phosphatase Increase - Activity Score” value is recorded as “Inactive”, the “Alkaline Phosphatase Increase - Index Value” is recorded as 0 and the “Alkaline Phosphatase Increase - Number of Reports” value was less than 4. In the data set with Hepatotoxicity [3], the “SGOT Increase - Activity Score” value is on record as “Inactive”, the “SGOT Increase - Index Value” came to 0 and the “SGOT Increase - Number of Reports” value is given as less than 4. In the data set on Hepatotoxicity [4], the “SGPT Increase - Activity Score” value was “Inactive”, the “SGPT Increase - Index Value” was 0 and the “SGPT Increase - Number of Reports” value is given as less than 4. For the same compound, in the data set on Hepatotoxicity [5], the “LDH Increase - Activity Score” value was “Inactive”, the “LDH Increase - Index Value” amounted to 0 and the “LDH Increase - Number of Reports” value is on record as less than 4. Further, in the data set with Hepatotoxicity [6], the “GGT Increase - Activity Score” value is listed as “Inactive”, the “GGT Increase - Index Value” is recorded as 0 and the “GGT Increase - Number of Reports” value is recorded as less than 4.

For `CC=CC1=C(C(=O)O)N2C(=O)[C@@H](NC(=O)[C@H](N)c3ccc(O)cc3)[C@H]2SC1` [CEFPROZIL], in the data set on Hepatotoxicity [1], the “Composite Activity - Active” value stood at 0, the “Composite Activity - Marginal” value is 0 and the “Composite Activity - Score” value is on record as “Inactive”. In addition, in the data set with Hepatotoxicity [2], the “Alkaline Phosphatase Increase - Activity Score” value was “Inactive”, the “Alkaline Phosphatase Increase - Index Value” is listed as 0.2 and the “Alkaline Phosphatase Increase - Number of Reports” value was “>= 4”. Also, in the data set with Hepatotoxicity [3], the “SGOT Increase - Activity Score” value is reported as “Inactive”, the “SGOT Increase - Index Value” was determined as 0.4 and the “SGOT Increase - Number of Reports” value is “>= 4”. Also, in the data set with Hepatotoxicity [4], the “SGPT Increase - Activity Score” value was “Inactive”, the “SGPT Increase - Index Value” was 0.2 and the “SGPT Increase - Number of Reports” value was “>= 4”. In addition, in the data set with Hepatotoxicity [5], the “LDH Increase - Activity Score” value is on record as “Inactive”, the “LDH Increase - Index Value” was found to be 0.2 and the “LDH Increase - Number of Reports” value was “>= 4”. For the same compound, in the data set on Hepatotoxicity [6], the “GGT Increase - Activity Score” value is given as “Inactive”, the “GGT Increase - Index Value” is 0.1 and the “GGT Increase - Number of Reports” value is on record as less than 4.

Regarding `O=C(O)Cc1ccccc1Nc1c(Cl)cccc1Cl` [DICLOFENAC], in the data set on Hepatotoxicity [1] (Liver), the “Composite Activity - Active” value amounted to 3, the “Composite Activity - Marginal” value was 1 and the “Composite Activity - Score” value is listed as “Active”. In addition, in the data set on Hepatotoxicity [2], the “Alkaline Phosphatase Increase - Activity Score” value is given as “Active”, the “Alkaline Phosphatase Increase - Index Value” was determined as 9.2 and the “Alkaline Phosphatase Increase - Number of Reports” value was “>= 4”. Also, in the data set with Hepatotoxicity [3], the “SGOT Increase - Activity Score” value is recorded as “Active”, the “SGOT Increase - Index Value” came to 11.4 and the “SGOT Increase - Number of Reports” value is on record as “>= 4”. Moreover, in the data set with Hepatotoxicity [4], the “SGPT Increase - Activity Score” value is “Active”, the “SGPT Increase - Index Value” is on record as 11.1 and the “SGPT Increase - Number of Reports” value is on record as “>= 4”. Also, in the data set with Hepatotoxicity [5], the “LDH Increase - Activity Score” value was “Inactive”, the “LDH Increase - Index Value” is given as 2 and the “LDH Increase - Number of Reports” value is listed as “>= 4”. In the data set with Hepatotoxicity [6], the “GGT Increase - Activity Score” value was “Marginally Active”, the “GGT Increase - Index Value” is 3.8 and the “GGT Increase - Number of Reports” value is “>= 4”.

Consider `CCCCC[C@H](O)/C=C/[C@@H]1[C@H]2C/C(=C/CCCC(=O)O)O[C@H]2C[C@H]1O` [EPOPROSTENOL], for which, in the data set on Hepatotoxicity [1], the “Composite Activity - Active” value amounted to 0, the “Composite Activity - Marginal” value is 0 and the “Composite Activity - Score” value is recorded as “Inactive”. In the data set with Hepatotoxicity [2], the “Alkaline Phosphatase Increase - Activity Score” value is listed as “Inactive”, the “Alkaline Phosphatase Increase - Index Value” is reported as 0 and the “Alkaline Phosphatase Increase - Number of Reports” value is reported as less than 4. In the data set on Hepatotoxicity [3], the “SGOT Increase - Activity Score” value was “Inactive”, the “SGOT Increase - Index Value” is 0 and the “SGOT Increase - Number of Reports” value is given as less than 4. In the data set on Hepatotoxicity [4], the “SGPT Increase - Activity Score” value is “Inactive”, the “SGPT Increase - Index Value” came to 0 and the “SGPT Increase - Number of Reports” value was less than 4. Besides, in the data set with Hepatotoxicity [5], the “LDH Increase - Activity Score” value is “Inactive”, the “LDH Increase - Index Value” is 0 and the “LDH Increase - Number of Reports” value is reported as less than 4. In the data set with Hepatotoxicity [6], the “GGT Increase - Activity Score” value is listed as “Inactive”, the “GGT Increase - Index Value” is recorded as 0 and the “GGT Increase - Number of Reports” value is given as less than 4.

On to `CC1=C(C(=O)O)N2C(=O)[C@@H](NC(=O)[C@H](N)c3ccc(O)cc3)[C@H]2SC1` [CEFADROXIL], for which, in the data set with Hepatotoxicity [1], the “Composite Activity - Active” value turned out to be 0, the “Composite Activity - Marginal” value was 0 and the “Composite Activity - Score” value is reported as “Inactive”. Also, in the data set on Hepatotoxicity [2], the “Alkaline Phosphatase Increase - Activity Score” value is recorded as “Inactive”, the “Alkaline Phosphatase Increase - Index Value” is 0 and the “Alkaline Phosphatase Increase - Number of Reports” value is reported as less than 4. Also, in the data set on Hepatotoxicity [3], the “SGOT Increase - Activity Score” value is recorded as “Inactive”, the “SGOT Increase - Index Value” worked out at 0 and the “SGOT Increase - Number of Reports” value was less than 4. In the data set on Hepatotoxicity [4], the “SGPT Increase - Activity Score” value is “Inactive”, the “SGPT Increase - Index Value” is given as 0 and the “SGPT Increase - Number of Reports” value is listed as less than 4. Further, in the data set on Hepatotoxicity [5], the “LDH Increase - Activity Score” value is reported as “Inactive”, the “LDH Increase - Index Value” came to 0 and the “LDH Increase - Number of Reports” value was less than 4. In the data set with Hepatotoxicity [6], the “GGT Increase - Activity Score” value is recorded as “Inactive”, the “GGT Increase - Index Value” is reported as 0 and the “GGT Increase - Number of Reports” value is recorded as less than 4.

`Cc1ccnc2c1NC(=O)c1cccnc1N2C1CC1` [NEVIRAPINE]: in the data set with Hepatotoxicity [1], the “Composite Activity - Active” value amounted to 5, the “Composite Activity - Marginal” value was 0 and the “Composite Activity - Score” value is on record as “Active”. Further, in the data set with Hepatotoxicity [2], the “Alkaline Phosphatase Increase - Activity Score” value is “Active”, the “Alkaline Phosphatase Increase - Index Value” turned out to be 27.5 and the “Alkaline Phosphatase Increase - Number of Reports” value is listed as “>= 4”. Moreover, in the data set on Hepatotoxicity [3], the “SGOT Increase - Activity Score” value is given as “Active”, the “SGOT Increase - Index Value” was determined as 68.7 and the “SGOT Increase - Number of Reports” value is recorded as “>= 4”. Also, in the data set with Hepatotoxicity [4], the “SGPT Increase - Activity Score” value is given as “Active”, the “SGPT Increase - Index Value” was 55 and the “SGPT Increase - Number of Reports” value is reported as “>= 4”. Moreover, in the data set with Hepatotoxicity [5], the “LDH Increase - Activity Score” value was “Active”, the “LDH Increase - Index Value” is 34.4 and the “LDH Increase - Number of Reports” value is given as “>= 4”. In the data set on Hepatotoxicity [6], the “GGT Increase - Activity Score” value is listed as “Active”, the “GGT Increase - Index Value” stood at 41.2 and the “GGT Increase - Number of Reports” value is “>= 4”.

In the case of `O=C1NC(c2ccccc2)(c2ccccc2)C(=O)N1COP(=O)(O)O` [FOSPHENYTOIN], in the data set on Hepatotoxicity [1], the “Composite Activity - Active” value turned out to be 0, the “Composite Activity - Marginal” value is on record as 0 and the “Composite Activity - Score” value was “Inactive”. Besides, in the data set with Hepatotoxicity [2], the “Alkaline Phosphatase Increase - Activity Score” value was “Inactive”, the “Alkaline Phosphatase Increase - Index Value” is 0 and the “Alkaline Phosphatase Increase - Number of Reports” value is recorded as less than 4. In the data set on Hepatotoxicity [3], the “SGOT Increase - Activity Score” value is on record as “Inactive”, the “SGOT Increase - Index Value” was 0 and the “SGOT Increase - Number of Reports” value is less than 4. Moreover, in the data set with Hepatotoxicity [4], the “SGPT Increase - Activity Score” value is listed as “Inactive”, the “SGPT Increase - Index Value” was found to be 0 and the “SGPT Increase - Number of Reports” value was less than 4. For the same compound, in the data set with Hepatotoxicity [5], the “LDH Increase - Activity Score” value is reported as “Inactive”, the “LDH Increase - Index Value” is 0 and the “LDH Increase - Number of Reports” value was less than 4. Further, in the data set on Hepatotoxicity [6], the “GGT Increase - Activity Score” value is listed as “Inactive”, the “GGT Increase - Index Value” is 0 and the “GGT Increase - Number of Reports” value is on record as less than 4.

Consider `CC(=O)OCC(=O)[C@@]12OC3(CCCC3)O[C@@H]1C[C@H]1[C@@H]3CCC4=CC(=O)C=C[C@]4(C)[C@@]3(F)[C@@H](O)C[C@@]12C` [AMCINONIDE], for which, in the data set on Hepatotoxicity [1], the “Composite Activity - Active” value was found to be 0, the “Composite Activity - Marginal” value was 0 and the “Composite Activity - Score” value is listed as “Inactive”. In addition, in the data set on Hepatotoxicity [2], the “Alkaline Phosphatase Increase - Activity Score” value is “Inactive”, the “Alkaline Phosphatase Increase - Index Value” came to 0 and the “Alkaline Phosphatase Increase - Number of Reports” value was less than 4. Also, in the data set on Hepatotoxicity [3], the “SGOT Increase - Activity Score” value was “Inactive”, the “SGOT Increase - Index Value” came out at 0 and the “SGOT Increase - Number of Reports” value is listed as less than 4. In addition, in the data set with Hepatotoxicity [4], the “SGPT Increase - Activity Score” value is “Inactive”, the “SGPT Increase - Index Value” came to 0 and the “SGPT Increase - Number of Reports” value is less than 4. Besides, in the data set with Hepatotoxicity [5], the “LDH Increase - Activity Score” value is on record as “Inactive”, the “LDH Increase - Index Value” was determined as 0 and the “LDH Increase - Number of Reports” value was less than 4. For the same compound, in the data set with Hepatotoxicity [6], the “GGT Increase - Activity Score” value is recorded as “Inactive”, the “GGT Increase - Index Value” came to 0 and the “GGT Increase - Number of Reports” value is less than 4.
